# From publication PMC12439480, “Dimeric CCK2R radiotheranostic tracers synergize with mTOR inhibition for enhanced tumor therapy” (Theranostics, 2025)
# Numbered stars: 1 amine (or outer) side, 2 acyl side, 3 side chain; on linkers, the order of the positions; unused ones are H or OH. Square brackets hold non-standard residues; d marks the D form. Side chains are listed from the residue outwards. Peptide text beside a SMILES is read from it. * marks the point of attachment. DOTA = O=C(O)CN1CCN(CC(=O)O)CCN(CC(=O)*)CCN(CC(=O)O)CC1; d(γGlu) = O=C(O)[C@@H](CCC(=O)[*:2])N[*:1]; 1Nal = N[C@@H](Cc1cccc2ccccc12)C(=O)O; NMeNle = CCCC[C@H](NC)C(=O)O; PEG4 = NCCOCCOCCOCCOCCC(=O)O
# Experiment: in vivo
# Design: species or system BALB/c nude mice
# Settings: mouse; for tissue to tissue ratio at 0.5 h / tissue to tissue ratio at 1 h / tissue to tissue ratio at 2 h: female, BALB/c nude, iv, 3.7 MBq, total radioactivity
# Experimental: To complement the imaging studies, biodistribution experiments were performed. AR42J tumor-bearing mice were intravenously injected with 3.7 MBq of [^68Ga]Ga-DOTA-CCK2R-dimer (≈ 120 pmol) or [^68Ga]Ga-DOTA-CCK-66 (≈ 210 pmol) (dissolved in 200 μL of saline; n = 3/group). The mice were sacrificed at 30, 60, and 120 min post-injection, and the tissues of interest were excised, weighed, and analyzed for radioactivity using a γ-counter. For blocking studies, a 400-fold excess of the lead compound was co-administered, and the mice were sacrificed at 1 h post-injection.
# All animal studies were approved by the Ethics Committee of Fudan University
# Shanghai Cancer Center (No. FUSCC-IACUC- S2023- 0003). Five-week-old female
# BALB/c nude mice were purchased from Shanghai SLAC Laboratory Animal
# Company. To establish cell-derived xenograft (CDX) models, 1 × 10⁶ AR42J cells
# (100 μL) were subcutaneously inoculated into the right shoulder of each mouse. […]
# [1] = Tumor-to-Large intestine ratio (T/B)
# [2] = Tumor-to-Small intestine ratio (T/B)
smiles,measurement,setting,value
"CCCC[C@@H](C(=O)N[C@@H](CC(=O)O)C(=O)N[C@@H](Cc1cccc2ccccc12)C(N)=O)N(C)C(=O)[C@H](Cc1c[nH]c2ccccc12)NC(=O)CCOCCOCCOCCOCCNC(=O)CC[C@@H](NC(=O)CC[C@H](NC(=O)CN1CCN(CC(=O)O)CCN(CC(=O)O)CCN(CC(=O)O)CC1)C(=O)N[C@H](CCC(=O)NCCOCCOCCOCCOCCC(=O)N[C@@H](Cc1c[nH]c2ccccc12)C(=O)N(C)[C@@H](CCCC)C(=O)N[C@@H](CC(=O)O)C(=O)N[C@@H](Cc1cccc2ccccc12)C(N)=O)C(=O)O)C(=O)O [[68Ga]Ga-DOTA-CCK2R-dimer, metal not drawn] ({DOTA}-E([d(γGlu)-PEG4-Trp-NMeNle-Asp-1Nal-NH2])[d(γGlu)][PEG4]W[NMeNle]D[1Nal]-NH2)",tissue to tissue ratio at 0.5 h,Tumor-to-Bladder ratio (T/B),7.42 ± 4.09
same,tissue to tissue ratio at 1 h,Tumor-to-Bladder ratio (T/B),8.41 ± 1.6
same,tissue to tissue ratio at 2 h,Tumor-to-Bladder ratio (T/B),40.8 ± 16.9
same,tissue to tissue ratio at 0.5 h,Tumor-to-Blood ratio (T/B),3.01 ± 1.29
same,tissue to tissue ratio at 1 h,Tumor-to-Blood ratio (T/B),6.8 ± 4.41
same,tissue to tissue ratio at 2 h,Tumor-to-Blood ratio (T/B),21.6 ± 9.41
same,tissue to tissue ratio at 0.5 h,Tumor-to-Bone ratio (T/B),19.2 ± 4.91
same,tissue to tissue ratio at 1 h,Tumor-to-Bone ratio (T/B),18.8 ± 5.04
same,tissue to tissue ratio at 2 h,Tumor-to-Bone ratio (T/B),142 ± 25
same,tissue to tissue ratio at 0.5 h,Tumor-to-Brain ratio (T/B),39.7 ± 24.6
same,tissue to tissue ratio at 1 h,Tumor-to-Brain ratio (T/B),61.8 ± 7.46
same,tissue to tissue ratio at 2 h,Tumor-to-Brain ratio (T/B),154 ± 17.5
same,tissue to tissue ratio at 0.5 h,Tumor-to-Heart ratio (T/B),5.23 ± 2.91
same,tissue to tissue ratio at 1 h,Tumor-to-Heart ratio (T/B),8.18 ± 0.91
same,tissue to tissue ratio at 2 h,Tumor-to-Heart ratio (T/B),18.5 ± 3.74
same,tissue to tissue ratio at 0.5 h,Tumor-to-Kidney ratio (T/B),1.66 ± 1.37
same,tissue to tissue ratio at 1 h,Tumor-to-Kidney ratio (T/B),1.15 ± 0.15
same,tissue to tissue ratio at 2 h,Tumor-to-Kidney ratio (T/B),1.62 ± 0.29
same,tissue to tissue ratio at 0.5 h,[1],8.98 ± 3.85
same,tissue to tissue ratio at 1 h,[1],10.5 ± 1.55
same,tissue to tissue ratio at 2 h,[1],40.2 ± 29.4
same,tissue to tissue ratio at 0.5 h,Tumor-to-Liver ratio (T/B),2.07 ± 1.51
same,tissue to tissue ratio at 1 h,Tumor-to-Liver ratio (T/B),3.05 ± 0.56
same,tissue to tissue ratio at 2 h,Tumor-to-Liver ratio (T/B),11.9 ± 4.6
same,tissue to tissue ratio at 0.5 h,Tumor-to-Lung ratio (T/B),3.34 ± 2.07
same,tissue to tissue ratio at 1 h,Tumor-to-Lung ratio (T/B),5.56 ± 2.82
same,tissue to tissue ratio at 2 h,Tumor-to-Lung ratio (T/B),19.7 ± 2.99
same,tissue to tissue ratio at 0.5 h,Tumor-to-Muscle ratio (T/M),11.8 ± 5.75
same,tissue to tissue ratio at 1 h,Tumor-to-Muscle ratio (T/M),16.5 ± 2.99
same,tissue to tissue ratio at 2 h,Tumor-to-Muscle ratio (T/M),33 ± 7.91
same,tissue to tissue ratio at 0.5 h,[2],7.72 ± 2.49
same,tissue to tissue ratio at 1 h,[2],8.04 ± 2.02
same,tissue to tissue ratio at 2 h,[2],26 ± 11.9
same,tissue to tissue ratio at 0.5 h,Tumor-to-Spleen ratio (T/B),7.04 ± 3.92
same,tissue to tissue ratio at 1 h,Tumor-to-Spleen ratio (T/B),12.6 ± 2
same,tissue to tissue ratio at 2 h,Tumor-to-Spleen ratio (T/B),39.4 ± 7.6
same,tissue to tissue ratio at 0.5 h,Tumor-to-Stomach ratio (T/B),4.5 ± 3.7
same,tissue to tissue ratio at 1 h,Tumor-to-Stomach ratio (T/B),5.93 ± 0.89
same,tissue to tissue ratio at 2 h,Tumor-to-Stomach ratio (T/B),10.5 ± 2.83
same,tissue uptake at 0.5 h,Bladder uptake,0.97 ± 0.52 %ID/g
same,tissue uptake at 1 h,Bladder uptake,1.59 ± 0.58 %ID/g
same,tissue uptake at 2 h,Bladder uptake,0.53 ± 0.15 %ID/g
same,tissue uptake at 0.5 h,Blood uptake,2.25 ± 1.2 %ID/g
same,tissue uptake at 2 h,Blood uptake,1.56 ± 0.97 %ID/g
same,tissue uptake at 0.5 h,Bone uptake,0.78 ± 0.48 %ID/g
same,tissue uptake at 2 h,Bone uptake,0.22 ± 0.18 %ID/g
same,tissue uptake at 0.5 h,Brain uptake,0.17 ± 0.07 %ID/g
same,tissue uptake at 2 h,Brain uptake,0.06 ± 0.04 %ID/g
same,tissue uptake at 0.5 h,Heart uptake,1.26 ± 0.44 %ID/g
same,tissue uptake at 2 h,Heart uptake,1.14 ± 0.39 %ID/g
same,tissue uptake at 0.5 h,Kidney uptake,5.24 ± 3.64 %ID/g
same,tissue uptake at 1 h,Kidney uptake,11.2 ± 1.84 %ID/g
same,tissue uptake at 2 h,Kidney uptake,12.7 ± 3.23 %ID/g
same,tissue uptake at 0.5 h,Large intestine uptake,1.38 ± 1.37 %ID/g
same,tissue uptake at 2 h,Large intestine uptake,0.67 ± 0.34 %ID/g
same,tissue uptake at 0.5 h,Liver uptake,3.45 ± 1.37 %ID/g
same,tissue uptake at 1 h,Liver uptake,4.24 ± 0.47 %ID/g
same,tissue uptake at 2 h,Liver uptake,2.01 ± 1.19 %ID/g
same,tissue uptake at 0.5 h,Lung uptake,2.01 ± 0.71 %ID/g
same,tissue uptake at 2 h,Lung uptake,1.02 ± 0.01 %ID/g
same,tissue uptake at 0.5 h,Muscle uptake,0.57 ± 0.24 %ID/g
same,tissue uptake at 2 h,Muscle uptake,0.62 ± 0.19 %ID/g
same,tissue uptake at 0.5 h,Small intestine uptake,1.48 ± 0.73 %ID/g
same,tissue uptake at 2 h,Small intestine uptake,0.86 ± 0.32 %ID/g
same,tissue uptake at 0.5 h,Spleen uptake,0.96 ± 0.4 %ID/g
same,tissue uptake at 2 h,Spleen uptake,0.52 ± 0.05 %ID/g
same,tissue uptake at 0.5 h,Stomach uptake,1.11 ± 0.59 %ID/g
same,tissue uptake at 2 h,Stomach uptake,1.97 ± 0.39 %ID/g
same,tissue uptake at 0.5 h,Tumor uptake,5.81 ± 1.83 %ID/g
same,tissue uptake at 2 h,Tumor uptake,20.2 ± 3.31 %ID/g
